The target of assay [1] is Envelope glycoprotein gp160 (Human immunodeficiency virus 1) (UniProt Q6QLK5). Kind of assay: Binding affinity to HIV1JRFL envelope glycoprotein expressed in human HOS cells assessed as fold change in binding to CoRBS 17b incubated for 1 hrs by cell based ELISA relative to BNM-III-170. The note with it: JRFL. (In general: In an ELISA, binding on a coated surface is turned into a signal by an enzyme label.)

The target of assay [2] is Envelope glycoprotein gp160 (Human immunodeficiency virus 1, UniProt Q6QLK5). The assay is described as follows: Binding affinity to HIV1 YU-2 gp120 by isothermal titration calorimetric analysis.
Assay [3] has as its system Human immunodeficiency virus 1. Kind of assay: Induction of sensitization to HIV-1CH58TF infected in CD4-positive T cells assessed as […] cellular cytotoxicity at 50 uM incubated for 4 to 6 hrs by AquaVivid/eFluor670 staining based by flow cytometric analysis. Type of assay: functional, organism-based. Background: A flow cytometer gives signals particle by particle.

This is an account of results in ChEMBL document CHEMBL4342492, “Optimization of Small Molecules That Sensitize HIV-1 Infected Cells to Antibody-Dependent Cellular Cytotoxicity” (ACS Med Chem Lett, 2020).

A word on the Kd: it is the constant that tells how readily two partners part at equilibrium. A higher Kd goes with weaker binding.

Activity calls are given as the source filed them. No cut-off for these calls is given here.

Envelope glycoprotein gp160, sequence (Q6QLK5 whole entry): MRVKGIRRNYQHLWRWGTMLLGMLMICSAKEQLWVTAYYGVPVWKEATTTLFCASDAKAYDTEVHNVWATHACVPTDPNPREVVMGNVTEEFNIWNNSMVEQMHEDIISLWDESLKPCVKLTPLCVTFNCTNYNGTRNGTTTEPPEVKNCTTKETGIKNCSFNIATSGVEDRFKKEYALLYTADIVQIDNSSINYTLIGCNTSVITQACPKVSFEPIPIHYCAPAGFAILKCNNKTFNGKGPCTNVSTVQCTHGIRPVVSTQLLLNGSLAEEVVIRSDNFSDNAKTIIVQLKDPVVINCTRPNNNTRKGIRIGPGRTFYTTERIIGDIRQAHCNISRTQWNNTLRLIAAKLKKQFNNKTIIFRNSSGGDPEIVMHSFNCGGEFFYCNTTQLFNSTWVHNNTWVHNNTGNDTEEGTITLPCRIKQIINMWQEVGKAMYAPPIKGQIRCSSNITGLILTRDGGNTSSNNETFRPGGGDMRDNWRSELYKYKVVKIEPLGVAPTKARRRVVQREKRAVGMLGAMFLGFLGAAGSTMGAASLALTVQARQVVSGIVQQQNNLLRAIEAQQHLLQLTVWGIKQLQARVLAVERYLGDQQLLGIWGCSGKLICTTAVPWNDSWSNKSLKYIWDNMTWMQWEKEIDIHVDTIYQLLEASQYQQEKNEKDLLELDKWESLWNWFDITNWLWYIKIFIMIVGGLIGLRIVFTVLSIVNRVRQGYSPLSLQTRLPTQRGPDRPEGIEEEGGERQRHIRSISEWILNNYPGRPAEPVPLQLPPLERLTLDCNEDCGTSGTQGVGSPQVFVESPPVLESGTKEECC
Envelope glycoprotein gp160 (Human immunodeficiency virus 1), sequence (Q6QLK5 1-814): as the sequence (Q6QLK5 whole entry) above

In the case of `CCS(=O)(=O)N1CCCC(C(=O)Nc2ccc(Cl)c(F)c2)C1` (racemic), the fold change (FC) in assay [1] came out at 0.42.

As for `CS(=O)(=O)N1CCNC(C(=O)Nc2ccc(Cl)c(F)c2)C1` (racemic), the fold change (FC) in assay [1] turned out to be 0.1.

`CCCNC(=O)N1C[C@H](N)C[C@H](C(=O)Nc2ccc(Cl)c(F)c2)C1`: the fold change (FC) in assay [1] is 0.11.

Take `O=C(Nc1ccc(Cl)c(F)c1)[C@H]1CCCOC1`: the fold change (FC) in assay [1] is 0.58.

As to `NCCCNC(=O)N1C[C@H](N)C[C@H](C(=O)Nc2ccc(Cl)c(F)c2)C1`, in assay [1], the fold change (FC) was found to be 0.06.

For the compound `CCCOC(=O)N1CCC[C@H](C(=O)Nc2ccc(Cl)c(F)c2)C1`, the fold change (FC) in assay [1] came to 0.51.

In the case of `CCS(=O)(=O)N1CCC[C@H](C(=O)Nc2ccc(Cl)c(F)c2)C1`, the fold change (FC) in assay [1] came to 0.35.

The compound `CCOC(=O)N1CCC[C@H](C(=O)Nc2ccc(Cl)c(F)c2)C1` came in with a dissociation constant (Kd) in assay [2] of 770 nM. In addition, the outcome in assay [3] was Active. Also, the fold change (FC) in assay [1] was 0.53.

As to `CS(=O)(=O)N1CCC(C(=O)Nc2ccc(Cl)c(F)c2)CC1`, in assay [1], the fold change (FC) is 0.21.

As for `CCCNC(=N)N1CCC[C@H](C(=O)Nc2ccc(Cl)c(F)c2)C1`, the fold change (FC) in assay [1] stood at 0.85.

Take `CS(=O)(=O)N1CCC(C(=O)Nc2ccc(Cl)c(F)c2)C1` (racemic): the fold change (FC) in assay [1] is 0.36.

`COC(=O)N1CCC[C@H](C(=O)Nc2ccc(Cl)c(F)c2)C1` gave a dissociation constant (Kd) in assay [2] of 1800 nM. The outcome in assay [3] was Active. The fold change (FC) in assay [1] was determined as 0.5.

Consider `NCCNC(=O)N1CCC[C@H](C(=O)Nc2ccc(Cl)c(F)c2)C1`, for which the outcome in assay [3] was Active. In assay [1], the fold change (FC) is 0.58.

For the compound `CS(=O)(=O)N1CCCC(NC(=O)c2ccc(Cl)c(F)c2)C1` (racemic), in assay [1], the fold change (FC) is 0.08.

Consider `CS(=O)(=O)N1CC(C(=O)Nc2ccc(Cl)c(F)c2)Cc2ccccc21` (racemic), for which, in assay [1], the fold change (FC) amounted to 0.24.

With `NCCOC(=O)N1C[C@H](N)C[C@H](C(=O)Nc2ccc(Cl)c(F)c2)C1`, the fold change (FC) in assay [1] was 0.07.

As to `CC(C)COC(=O)N1CCC[C@H](C(=O)Nc2ccc(Cl)c(F)c2)C1`, in assay [1], the fold change (FC) was 0.62.

Regarding `CS(=O)(=O)N1CCC[C@H](C(=O)Nc2ccc(Cl)cc2)C1`, in assay [2], the dissociation constant (Kd) is greater than 10000 nM. For the same compound, the fold change (FC) in assay [1] is 0.31.

Take `O=C(Nc1ccc(Cl)c(F)c1)[C@@H]1CCCOC1`: in assay [1], the fold change (FC) was 0.28.

Regarding `CS(=O)(=O)N1CCC[C@H](C(=O)Nc2ccc(Br)cc2)C1`, the fold change (FC) in assay [1] was found to be 0.36.

With `CS(=O)(=O)N1CCC[C@H](C(=O)Oc2ccc(Cl)c(F)c2)C1`, in assay [1], the fold change (FC) was determined as 0.07.

In turn, `CS(=O)(=O)N1CCC[C@H](C(=O)Nc2ccc(Cl)c(F)c2)C1` displayed a dissociation constant Kd in assay [2] of 2800 nM. In assay [3], the result was Active. For the same compound, in assay [1], the fold change (FC) was determined as 0.58.

On to `NCCCNC(=O)N1CCC[C@H](C(=O)Nc2ccc(Cl)c(F)c2)C1`, for which the fold change (FC) in assay [1] was 0.25.

Regarding `CCCNC(=O)N1CCC[C@H](C(=O)Nc2ccc(Cl)c(F)c2)C1`, the outcome in assay [3] was Active. For the same compound, in assay [1], the fold change (FC) came out at 0.55.

As to `CS(=O)(=O)N1CCOC(C(=O)Nc2ccc(Cl)c(F)c2)C1` (racemic), the fold change (FC) in assay [1] is 0.28.

On to `CS(=O)(=O)N1CCC[C@@H](C(=O)Nc2ccc(Cl)cc2)C1`, for which the fold change (FC) in assay [1] stood at 0.08.

Regarding `O=C(Nc1ccc(Cl)c(F)c1)C1CCCOC1` (racemic), the fold change (FC) in assay [1] turned out to be 0.48.

With `O=C(Nc1ccc(Cl)c(F)c1)[C@H]1CCCN(S(=O)(=O)c2ccccc2)C1`, the fold change (FC) in assay [1] is 0.45.

With `NCCNC(=O)N1C[C@H](N)C[C@H](C(=O)Nc2ccc(Cl)c(F)c2)C1`, the fold change (FC) in assay [1] came out at 0.06.
